This assay relates to mit Crotonöl induzierten Rattenohroedems. Nature of the assay: Croton oil-induced rat ear oedema, method of Tonelli and Thibault, local application. It counts as in vivo, Normalratte. The conditions noted are these: inhibition of croton oil-induced rat ear oedema in the normal rat. On the procedure:
Diese Eigenschaft lässt sich beispielsweise nach der von G. Tonelli, L. Thibault, Endocrinology 77, 625 (1965) entwickelten Methode durch Hemmung des mit Crotonöl induzierten Rattenohroedems bei der Normalratte im Dosisbereich von etwa 1 bis etwa 100 mg/ml nachweisen.

Structures are written as SMILES. ≈ marks a conversion by molar mass, not a printed value.

`CCOC(=O)Cc1nc(-c2ccccc2)c(-c2cccnc2)[nH]1` [2-[4-Phenyl-5-(3-pyridyl)-imidazol-2-yl]-essigsäureethylester] came in with an ED50-Wert of 17 mg/mL (≈ 55.3 mM).

Source of the values: patent publication EP0084756A1, “Trisubstituted oxaza compounds” (CIBA-GEIGY AG, priority 1982, dated 1983).
